Test results from patent publication US8110703B2, “Retinoid derivative and pharmaceutical composition and use thereof” (Anhui Medical University, priority 2008, dated 2012).
“And” between values parts separate entries of the source, which are not always exact repeats. Identical values can stand only once. Marks after values point to notes of the source that are not given here.

Legend:
Type in all cases: cell-based
A549 cells [1] = experiment: Differentiation index: CEA secretory volume of A549 cells; conditions: A549 culture supernatant, 10 ug/ml, 3 d, DMSO
Experimental: 1.6 Detection of Differentiation Index The cultured A549 cells are randomly divided into 6 10 μg/ml drug groups, cell control groups, solvent control groups (DMSO and ethanol) and 10 μg/ml fenretinide control groups (11 in total). The control groups and drug groups are cultured for 3 days to collect respective 3 tubes of cell culture solutions which are centrifugated at a speed of 4000 r/min for 5 min to take the supernatant and detect the CEA content of the kit by using enzyme kinetics and CEA detection.

A549 lung cancer cells = experiment: MTT cell growth and proliferation experiment, A549; parameters: key to Inhibition Rate: (control OD570 − test OD570)/control OD570, as fraction
Procedure, shortened: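 Cells in DMEM/10% calf serum were treated with retinoic acid derivatives at 1, 5 and 10 ug/ml (DMSO <0.1%) for 3 d, then with MTT for 4 h at 37° C. Read-out was OD570 after DMSO solubilisation, giving % growth inhibition versus control wells. A time-course at 10 umol/L ran for 1, 2, 3 and 7 days.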

HepG2 cells = experiment: Cell cycle and apoptosis by flow cytometry, HepG2; conditions: for Apoptosis Rate (%) / G0-G1 (%) / G2-M (%) / S %: HepG2, flow cytometry
A549 cells [2] = experiment: Cell cycle and apoptosis by flow cytometry, A549; conditions: A549, 10 μg/ml, 3 days, PI flow cytometry
Experimental: 1.4 Detection of Cell Cycle and Apoptosis by Flow Cytometry A549 cells in the logarithmic phase are collected, regulated with the concentrations thereof to 8×10^7/L, inoculated in a 6-hole board, cultured in an incubator (37° C. and 5% CO2). After the cells are adhered, the culture solution is discarded, and a culture solution having drugs with the corresponding concentrations is added and divided into 10 μg/ml drug groups, 10 μg/ml fenretinide groups, cell control groups, solvent control groups (1‰ DMSO and anhydrous ethanol) (11 in total). After 3 days, each group of cells is normally digested, collected, blown into single cell suspension, washed by cold PBS twice, and re-suspend by 10 μl PBS. Fixing and member breaking agents and a PI staining solution are added according to the Coulter DNA detection kit and reacted with one another at the room temperature and out of light for 30 min for machine detection. Each sample detects 10000 cells and repeats for three times, and the data are analyzed by Analysis software for the ratio during the G0-G1, S and G2-M periods and the ratio of apoptotic cells.

K562 cells = experiment: Cell cycle analysis by flow cytometer, K562; parameters: S %: dose or concentration left out as unconfirmed; conditions: 72 h
Procedure, shortened: (§1)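 NB4 and K562 cells in RPMI1640 with 10% FBS were exposed to compounds […] for 72 h. Then they were fixed in 70% cold ethanol and stained with 5 ug/ml propidium iodide for cell-cycle profiling by flow cytometry.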

NB4 cells = experiment: Cell cycle analysis by flow cytometer, NB4; parameters: S %: dose or concentration left out as unconfirmed; conditions: 72 h
Procedure, shortened: as §1

[3] = A549, MTT OD 570 nm, 1 ug/ml, 3 d, solvent DMSO (D)
[4] = A549, MTT OD 570 nm, 5 ug/ml, 3 d, solvent DMSO (D)
[5] = A549, MTT OD 570 nm, 10 ug/ml, 3 d, solvent DMSO (D)
[6] = A549, MTT time gradient, 10 ug/ml, 1 d
[7] = A549, MTT time gradient, 10 ug/ml, 1 d, fraction
[8] = A549, MTT time gradient, 10 ug/ml, 2 d
[9] = A549, MTT time gradient, 10 ug/ml, 2 d, fraction
[10] = A549, MTT time gradient, 10 ug/ml, 3 d
[11] = A549, MTT time gradient, 10 ug/ml, 3 d, fraction
[12] = A549, MTT time gradient, 10 ug/ml, 7 d
[13] = A549, MTT time gradient, 10 ug/ml, 7 d, fraction

SMILES	CEA (A549 cells [1]) [µg/L]	OD Value (x ± s) (A549 lung cancer cells; [3])	OD Value (x ± s) (A549 lung cancer cells; [4])	OD Value (x ± s) (A549 lung cancer cells; [5])	OD Value (x ± s) (A549 lung cancer cells; [6])	Inhibition Rate (A549 lung cancer cells; [7])	OD Value (x ± s) (A549 lung cancer cells; [8])	Inhibition Rate (A549 lung cancer cells; [9])	OD Value (x ± s) (A549 lung cancer cells; [10])	Inhibition Rate (A549 lung cancer cells; [11])	OD Value (x ± s) (A549 lung cancer cells; [12])	Inhibition Rate (A549 lung cancer cells; [13])	Apoptosis Rate (%) (HepG2 cells)	G0-G1 (%) (HepG2 cells)	G2-M (%) (HepG2 cells)	S % (HepG2 cells) [%]	Apoptosis Rate (%) (A549 cells [2])	G0-G1 (%) (A549 cells [2])	G2-M (%) (A549 cells [2])	S % (A549 cells [2]) [%]	also measured
CC1=C(/C=C/C(C)=C/C=C/C(C)=C/C(=O)Nc2cccc(OC(F)(F)F)c2)C(C)(C)CCC1 [Example 6a-02, (3-trifluoromethoxyphenyl)-(all-trans)-3,7-dimethyl-9-(2,6,6-trimethyl-1-cyclohexen-1-yl)-2,4,6,8-nonatetraenoic acid amide]	3.5	1.637 ± 0.146 and 1.614 ± 0.146	1.613 ± 0.120 and 1.580 ± 0.096	1.362 ± 0.077 and 1.498 ± 0.218	0.774 ± 0.030	0.156	1.065 ± 0.045	0.272	0.408 ± 0.028	0.561	0.666 ± 0.049	0.679	15.7* %	57.5	2.61	25.4	9.79	70.0	1.71	19.0	Inhibition Rate (A549 lung cancer cells; A549, MTT, 1 ug/ml, 3 d, solvent DMSO (D), given as fraction): 0.123 and 0.135; Inhibition Rate (A549 lung cancer cells; A549, MTT, 5 ug/ml, 3 d, solvent DMSO (D), given as fraction): 0.136 and 0.154; Inhibition Rate (A549 lung cancer cells; A549, MTT, 10 ug/ml, 3 d, solvent DMSO (D), given as fraction): 0.270 and 0.197; G1 % (K562 cells): 32.2%; G2 % (K562 cells): 10.9%; S % (K562 cells): 56.8%; G1 % (NB4 cells): 75.47%; G2 % (NB4 cells): 5.52%; S % (NB4 cells): 19.01%
CC1=C(/C=C/C(C)=C/C=C/C(C)=C/C(=O)Oc2ccc(N)cc2C(F)(F)F)C(C)(C)CCC1 [Example 4a-02, (4-amino-2-trifluoromethylphenyl)-(all-trans)-3,7-dimethyl-9-(2,6,6-trimethyl-1-cyclohexen-1-yl)-2,4,6,8-nonatetraenoate]	3.1	1.644 ± 0.272 and 2.020 ± 0.317	1.618 ± 0.087 and 1.979 ± 0.138	1.808 ± 0.143	0.815 ± 0.045	0.111	1.176 ± 0.021	0.196	0.720 ± 0.025	0.223	1.144 ± 0.150	0.448	38.1* %	30.9	3.20	28.5	23.9	44.1	1.90	29.4	effect on the apoptosis of HepG2 cells (ranking in words) (HepG2 cells; HepG2): most greatly effects on the apoptosis of HepG2 cells; G1 % (K562 cells): 33.1%; G2 % (K562 cells): 11.5%; S % (K562 cells): 55.4%; G1 % (NB4 cells): 52.59%; G2 % (NB4 cells): 7.68%; S % (NB4 cells): 39.73%
